Results on 24 molecules are retold here after ChEMBL document CHEMBL4402532, “Heme Oxygenase-2 (HO-2) as a therapeutic target: Activators and inhibitors” (Eur J Med Chem, 2019).

pIC50: −log10 of the molar value.

Common to all, as to assay type: microsomes
Test [1] concerns the target T1, Heme oxygenase 1 (Rattus norvegicus, UniProt P06762).
T1 sequence (P06762 whole entry): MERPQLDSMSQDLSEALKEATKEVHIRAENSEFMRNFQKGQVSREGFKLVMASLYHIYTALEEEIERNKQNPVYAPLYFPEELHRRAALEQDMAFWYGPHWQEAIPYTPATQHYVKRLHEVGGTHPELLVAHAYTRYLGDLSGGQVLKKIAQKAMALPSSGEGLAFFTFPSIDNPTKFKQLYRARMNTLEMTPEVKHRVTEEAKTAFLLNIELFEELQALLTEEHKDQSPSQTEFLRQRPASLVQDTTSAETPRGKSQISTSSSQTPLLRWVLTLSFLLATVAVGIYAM
The test is described as follows: Inhibition of Sprague-Dawley rat spleen microsome HO-1 preincubated for 10 mins followed by beta-NADPH addition and measured after 15 mins by gas chromatography.

For test [2], the target named is T2, Heme oxygenase 2 (Rattus norvegicus, UniProt P23711).
T2 sequence (P23711 whole entry): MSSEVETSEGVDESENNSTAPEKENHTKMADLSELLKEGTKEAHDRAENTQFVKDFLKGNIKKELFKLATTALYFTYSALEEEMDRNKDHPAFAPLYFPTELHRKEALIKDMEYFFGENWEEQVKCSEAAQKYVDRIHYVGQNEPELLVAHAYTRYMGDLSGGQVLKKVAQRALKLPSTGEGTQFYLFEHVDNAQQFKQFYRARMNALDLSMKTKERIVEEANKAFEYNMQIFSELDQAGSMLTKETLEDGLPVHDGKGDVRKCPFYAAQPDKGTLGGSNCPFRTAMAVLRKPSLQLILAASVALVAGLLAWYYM
The test is described as follows: Inhibition of Sprague-Dawley rat brain microsome HO-2 preincubated for 10 mins followed by beta-NADPH addition and measured after 15 mins by gas chromatography.

The target in test [3] is T3, Heme oxygenase 1 (Rattus norvegicus) (UniProt P06762).
T3 sequence (whole entry): T1 sequence (P06762 whole entry)
Put plainly: Activation of rat spleen microsome HO-1 preincubated for 10 mins followed by NADPH addition and measured after 15 mins by gas chromatography relative to control. On the set-up: concentration or dose not given beside the values.

For test [4], the target named is T4, Heme oxygenase 2 (Rattus norvegicus) (UniProt P23711).
T4 sequence (whole entry): T2 sequence (P23711 whole entry)
Put plainly: Activation of rat brain microsome HO-2 […] preincubated for 10 mins followed by NADPH addition and measured after 15 mins by gas chromatography relative to control. Also on record: concentration or dose not given beside the values.

Test [5] has as its target T1, Heme oxygenase 1. Put plainly: Inhibition of rat spleen microsome HO-1 preincubated for 10 mins followed by beta-NADPH addition and measured after 15 mins by gas chromatography.
Test [6] concerns the target T2, Heme oxygenase 2. The test is described as follows: Inhibition of rat brain microsome HO-2 preincubated for 10 mins followed by beta-NADPH addition and measured after 15 mins by gas chromatography.

On to `O=C(Cn1ccnc1)c1ccc(Cl)c(Cl)c1`, for which, on Heme oxygenase 1 [1], the pIC50 was 5.91.
Consider `c1ccc(CCCCn2ccnc2)cc1`, for which the pIC50 against Heme oxygenase 1 [1] is 6.60; at Heme oxygenase 2 [2], 5.17.
The like results for `O=C(Cn1ccnc1)c1ccc(C2CCCCC2)cc1` were, in that order, 5.30 and 5.22.
Take `COc1ccc(NC2=C(N3CCCCC3)C(=O)c3ccccc3C2=O)cc1`: the values for the Activity in test [3] and in test [4] were 82% and 249%, respectively.
On to `Fc1ccc(CO[C@@H](CCc2ccc(Cl)cc2)Cn2ccnc2)cc1`, for which the pIC50 is 6.05 at Heme oxygenase 1 [1] and 6.00 on Heme oxygenase 2 [2].
Turning to `Cc1oc2c(c1C(=O)N1CCCC1)C(=O)c1ccccc1C2=O`, the Activity turned out to be 91% in test [3] and 602% in test [4].
For `CC(C)N1CCN(c2ccc(OCC3COC(Cn4cncn4)(c4ccc(Cl)cc4Cl)O3)cc2)CC1` (stereo unspecified) [TERCONAZOLE], the figures for the pIC50 at Heme oxygenase 1 [5] and on Heme oxygenase 2 [6] were 6.39 and 5.30, respectively.
Regarding `Cc1ccc(Cn2c(CC3CCCC3)nc3ccccc32)cc1`, the pIC50 is 4.74 against Heme oxygenase 1 [1] and 5.07 on Heme oxygenase 2 [2].
As for `O=C1C=CC(=O)c2ccccc21`, the Activity in test [3] was 71%; in test [4], 503%.
For the molecule `CC(C)(C)N1COc2ccc3c4c(oc3c2C1)C(=O)c1ccccc1C4=O`, the Activity in test [3] was determined as 85%; in test [4], 345%.
Turning to `Brc1ccc(Cn2c(CC3CCCC3)nc3ccccc32)cc1`, the values for the pIC50 at Heme oxygenase 1 [1] and against Heme oxygenase 2 [2] were 4.12 and 5.08, respectively.
As for `Cc1ccc(S(=O)(=O)C[C@@H]2CO[C@@](CCc3ccc(Cl)cc3)(Cn3ccnc3)O2)cc1`, the pIC50 on Heme oxygenase 1 [1] is 5.22; at Heme oxygenase 2 [2], 5.52.
With `O=C(Cn1ccnc1)c1ccc(Cl)c(Cl)c1Cl`, the pIC50 on Heme oxygenase 1 [1] is 5.68; against Heme oxygenase 2 [2] it was 5.22.
With `c1ccc(CCCCCCn2ccnc2)cc1`, the results for the pIC50 at Heme oxygenase 1 [1] and at Heme oxygenase 2 [2] were 5.55 and 4.70, respectively.
Regarding `O=C1C(O)=C(Cl)C(=O)c2ccccc21`, the Activity is 106% in test [3] and 108% in test [4].
Take `O=C(Cn1cncn1)c1ccc(Cc2ccccc2)cc1`: the figures for the pIC50 at Heme oxygenase 1 [1] and against Heme oxygenase 2 [2] were 5.57 and 5.15, respectively.
Regarding `COc1ccc(CC(O)CCn2ccnc2)cc1` (stereo unspecified), the pIC50 against Heme oxygenase 1 [1] is 6.15; against Heme oxygenase 2 [2], 5.22.
On to `OC(Cn1ccnc1)CC12CC3CC(CC(C3)C1)C2` (stereo unspecified), for which the figures for the pIC50 against Heme oxygenase 1 [1] and against Heme oxygenase 2 [2] were 5.70 and 5.19, respectively.
In the case of `O=C1CCCc2ccccc21`, the Activity in test [3] came to 98%; in test [4], 96%.
As to `O=C(Cn1ccnc1)c1cccc2ccccc12`, the pIC50 against Heme oxygenase 1 [1] is 5.65; at Heme oxygenase 2 [2], 5.00.
The molecule `c1ccc(CSCCn2ccnc2)cc1` had a pIC50 against Heme oxygenase 2 [2] of 5.00.
Consider `O=C(Cc1ccc(Br)cc1)Cn1ccnn1`, for which the pIC50 at Heme oxygenase 1 [1] is 6.41; against Heme oxygenase 2 [2] it was 5.52.
On to `c1ccc(Cn2c(CC3CC4CCC3C4)nc3ccccc32)cc1` (stereo unspecified), for which the pIC50 was under 4.00 against Heme oxygenase 1 [1] and 5.20 at Heme oxygenase 2 [2].
Regarding `O[C@H](Cn1ccnc1)c1ccc(CCc2ccccc2)cc1`, the pIC50 at Heme oxygenase 1 [1] is 6.65; against Heme oxygenase 2 [2], 5.10.
